Reference: patent US9441006B2, “Polymorph of 2-[4-[(methylamino)carbonyl]-1H-pyrazol-1-yl]adenosine” (Farmak, a.s., priority 2013, dated 2016)
Where two headings read alike, the source gives them in different places. Each block holds one compound with its values, some of them ahead of it.

Legend:
[1] = all known polymorphic forms; cited from earlier work
[2] = background art, WO 2008/143667, cited from earlier work
[3] = Dissolution rate in water (Lasentec FBRM particle size distribution measurement); format: physicochemical; settings: 165 mg in 500 ml water, identical conditions, FIG. 4
Protocol: Equal amounts of both polymorphs (165 mg) were dissolved in the same amounts of water (500 ml) under identical conditions (dissolving regime, stirrer revolutions, etc.). It is obvious that the dissolution rate of polymorph E is approximately twofold. Polymorph E is completely dissolved within about 45 minutes, whereas the same amount of polymorph A is, under same conditions, dissolved after about 90 minutes.

[4] = Solubility of polymorph E in water in comparison with polymorph A; format: physicochemical; settings: at different temperatures

Compound: CNC(=O)c1cnn(-c2nc(N)c3ncn([C@@H]4O[C@H](CO)[C@@H](O)[C@H]4O)c3n2)c1 [regadenoson, 2-[4-[(Methylamino)carbonyl]-1H-pyrazol-1-yl]adenosine]
water solubility [1]: poor water solubility

Compound: CNC(=O)c1cnn(-c2nc(N)c3ncn([C@@H]4O[C@H](CO)[C@@H](O)[C@H]4O)c3n2)c1 [Polymorph C, 2-[4-[(methylamino)carbonyl]-1H-pyrazol-1-yl]adenosine]
stability of the polymorph [2]: converted to unstable forms by heating

Compound: CNC(=O)c1cnn(-c2nc(N)c3ncn([C@@H]4O[C@H](CO)[C@@H](O)[C@H]4O)c3n2)c1 [amorphous form, 2-[4-[(methylamino)carbonyl]-1H-pyrazol-1-yl]adenosine]
stability of the polymorph [2]: unstable

time to complete dissolution in water ([3]; monohydrate): about 90 minutes
Compound: CNC(=O)c1cnn(-c2nc(N)c3ncn([C@@H]4O[C@H](CO)[C@@H](O)[C@H]4O)c3n2)c1 [polymorph A, 2-[4-[(methylamino)carbonyl]-1H-pyrazol-1-yl]adenosine monohydrate]
stability of the polymorph ([2]; monohydrate): relatively stable

dissolution rate in water relative to polymorph A [3]: approximately twofold
time to complete dissolution in water [3]: about 45 minutes
solubility in water [4]: practically the same
Compound: CNC(=O)c1cnn(-c2nc(N)c3ncn([C@@H]4O[C@H](CO)[C@@H](O)[C@H]4O)c3n2)c1 [polymorph E, 2-[4-[(methylamino)carbonyl]-1H-pyrazol-1-yl]adenosine]
